Here are results for 5 compounds from ChEMBL document CHEMBL1201862, “PubChem BioAssay data set” (2004).

Test systems include HCT-15; SF-539; LOX IMVI; SF-295; SNB-75; SF-268; U-251; NCI-H226; SNB-19; TK-10; OVCAR-3; UACC-62; A549; ACHN; SK-OV-3; RPMI-8226; HOP-92; SK-MEL-2; COLO 205.
Common to all, as to assay: NCI anticancer screen, dose series, 48 h

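Each compound was tested at five concentrations against cells in 96-well plates for 48 hours. The concentration for 50% growth inhibition is given as GI50.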 Calls of active or inactive are those of the source. No stated cut-off is given here; in the data, active = GI50 up to about 1.1 µM and inactive = higher. Bounds are passed on as bounds.

Regarding `Nc1ccc2c(c1)C(=O)N(O)C2=O`, the GI50 in the assay with HCT-15 was greater than 100 µM; in the assay on SF-539, > 100 µM (inactive); in the assay on LOX IMVI, > 100 µM (inactive); in the assay with SF-295, > 100 µM (inactive); with SNB-75 it was > 100 µM (inactive); in the assay with SF-268 it was > 100 µM (inactive). The GI50 with U-251, in the assay on NCI-H226, with SNB-19, with TK-10, in the assay on OVCAR-3 and in the assay with UACC-62 was > 100 µM (inactive) throughout. Besides, the GI50 with A549, with ACHN and with SK-OV-3 was > 100 µM (inactive) each time.
Regarding `CC(C)C[C@@H](NC(=O)[C@@H](Cc1cccc2ccccc12)NC(=O)N1CCOCC1)B(O)O`, the GI50 with HCT-15 is greater than 100 µM; with SF-539 it was 43.4 µM (inactive); in the assay on LOX IMVI, 54.6 µM (inactive); with SF-268, 61.5 µM (inactive); in the assay on U-251, > 100 µM (inactive); in the assay on NCI-H226, 18 µM (inactive). Besides, the GI50 in the assay on RPMI-8226 was 32.5 µM (inactive); in the assay on SNB-19, > 100 µM (inactive); with HOP-92 it was 37.1 µM (inactive); with SK-MEL-2 it was 37 µM (inactive); in the assay with TK-10 it was 31.9 µM (inactive); in the assay with OVCAR-3, 29.4 µM (inactive). Further, the GI50 with COLO 205 was 48.4 µM (inactive); with UACC-62, 63.1 µM (inactive); in the assay on A549, > 100 µM (inactive); with ACHN, 66.1 µM (inactive).
Turning to `CN(C)/C(=N\C#N)NCc1ccccc1`, the GI50 in the assay on HCT-15 is greater than 100 µM; in the assay with SF-539, > 100 µM (inactive); with LOX IMVI, > 100 µM (inactive); with SF-295, > 100 µM (inactive); with SF-268 it was > 100 µM (inactive); in the assay with U-251 it was > 100 µM (inactive). The GI50 in the assay with SNB-19, in the assay with HOP-92, with SK-MEL-2, in the assay on TK-10, in the assay with OVCAR-3 and in the assay with COLO 205 was > 100 µM (inactive) in each case. For the same compound, the GI50 in the assay with UACC-62, in the assay on A549, in the assay on ACHN and in the assay with SK-OV-3 was > 100 µM (inactive) throughout.
On to `O=C1C(=Cc2cccc(O)c2)N=C(c2ccccc2)N1n1c(-c2ccccc2)nc2ccccc2c1=O`, for which the GI50 was 34.7 µM with HCT-15; 17.9 µM (inactive) in the assay with SF-539; 23.4 µM (inactive) in the assay on LOX IMVI; 24 µM (inactive) with SF-295; 25 µM (inactive) in the assay on SF-268; 35.4 µM (inactive) in the assay with U-251. In addition, the GI50 in the assay on NCI-H226 was 0.48 µM (active); with RPMI-8226 it was 17.4 µM (inactive); in the assay with SNB-19, 25.9 µM (inactive); with HOP-92, 15.5 µM (inactive); in the assay with TK-10 it was 48.3 µM (inactive); with OVCAR-3 it was 22.4 µM (inactive). In addition, the GI50 with COLO 205 is 31.4 µM (inactive); in the assay with UACC-62 it was 19.7 µM (inactive); with A549, 36.9 µM (inactive); in the assay on ACHN, 21.6 µM (inactive); in the assay with SK-OV-3, 33.3 µM (inactive).
`COC1CCC(O)C(CO)O1` (stereo not drawn): the GI50 in the assay with HCT-15 was greater than 100 µM; in the assay on SF-539, 41.2 µM (inactive); in the assay on LOX IMVI, 23.3 µM (inactive); with SF-295, > 100 µM (inactive); with SNB-75 it was > 100 µM (inactive); in the assay on U-251, > 10 µM (inactive). The GI50 in the assay with HOP-92 is > 100 µM (inactive); with SK-MEL-2 it was > 100 µM (inactive); with TK-10 it was > 100 µM (inactive); with OVCAR-3, 41.4 µM (inactive); in the assay with UACC-62, > 100 µM (inactive); with A549, > 100 µM (inactive). Moreover, the GI50 with ACHN and with SK-OV-3 was > 100 µM (inactive) each time.
